Experimental data taken from patent publication US12319695B2, “Sulfonamide derivative with fused pyrimidine skeleton, having epidermal growth factor receptor mutation inhibitory effect” (HANMI PHARM. CO., LTD., priority 2018, dated 2025).

System: Ba/F3 EGFR del19/T790M/C797S cells
Assay: Ba/F3 EGFR del19/T790M/C797S cell growth inhibition test (CellTiter-Glo, 72 hours);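 note: compounds tested in tenfold steps from 10 µM down to 0.1 nM, with luminescence read on a microplate reader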
Format: cell-based
Details: Ba/F3 cell line overexpressing EGFR del19/T790M/C797S, 72 hours, CellTiter-Glo; read-out: Ba/F3 EGFR del19/T790M/C797S cells, GI50
Protocol: Specifically, the cell line stored in a liquid nitrogen tank was taken out, rapidly dissolved at 37° C., and thereafter centrifuged to remove the cryopreservation medium. The recovered cell pellets were well mixed in a culture medium, put into a culture flask, and passaged under conditions of 37° C. and 5% carbon dioxide to stabilize the cells to the logarithmic growth phase. Thereafter, cells were taken from the flask, centrifuged to remove the culture medium, washed with Dulbecco's phosphate buffered saline (DPBS), and then centrifuged again to remove DPBS, and then diluted with a culture medium to have 1×10^5 cells/ml. The diluted cells were dispensed into a 96-well plate at 100 μl per well. […] The DMSO solution containing each compound was diluted with a culture medium to a concentration of 30 μM, and then tenfold serial dilution was used to prepare a solution diluted upto 0.3 nM (in order to reach a final DMSO concentration of 1% or less).
50 μl of a test solution of each compound was added each time to the 96-well plate in which the cells were dispensed, thus reaching a final concentration of 10 μM to 0.1 nM in 150 μl per well. The cells treated with the test solution were cultured under conditions of 37° C. and 5% carbon dioxide for 72 hours. After the 96-well plate in which the cells were cultured was acclimated to room temperature for 30 minutes, CellTiter-Glo® Luminescent Cell Assay Reagent (CTG, Promega) was dispensed at 50 μl per well. After stabilizing luminescence signals for 10 minutes, the luminescence intensity was measured with a microplate reader.
The GI50 value of each compound was calculated using nonlinear regression of GraphPad Prism; log[inhibitor] vs. normalized response analysis.

SMILES | GI50
CN1CCN(c2ccc(Nc3nc(Nc4ccccc4N(C)S(C)(=O)=O)c4cc[nH]c4n3)cc2)CC1 [Example 1, N-methyl-N-(2-((2-((4-(4-methylpiperazin-1-yl)phenyl)amino)-7H-pyrrolo[2,3-d]pyrimidine-4-yl)amino)phenyl)methanesulfonamide] | 3.1 nM
Cc1cc(N2CCN(C)CC2)ccc1Nc1nc(Nc2ccccc2N(C)S(C)(=O)=O)c2cc[nH]c2n1 [Example 2, N-methyl-N-(2-((2-((2-methyl-4-(4-methylpiperazin-1-yl)phenyl)amino)-7H-pyrrolo[2,3-d]pyrimidine-4-yl)amino)phenyl)methanesulfonamide] | 522 nM
CN1CCN(c2ccc(Nc3nc(Nc4ccccc4N(C)S(C)(=O)=O)c4cc[nH]c4n3)c(F)c2)CC1 [Example 3, N-(2-((2-((2-fluoro-4-(4-methylpiperazin-1-yl)phenyl)amino)-7H-pyrrolo[2,3-d]pyrimidine-4-yl)amino)phenyl)-N-methylmethanesulfonamide] | 157 nM
CN1CCN(c2ccc(Nc3nc(Nc4ccccc4N(C)S(C)(=O)=O)c4cc[nH]c4n3)cc2O)CC1 [Example 4, N-(2-((2-((3-hydroxy-4-(4-methylpiperazin-1-yl)phenyl)amino)-7H-pyrrolo[2,3-d]pyrimidine-4-yl)amino)phenyl)-N-methylmethanesulfonamide] | 453 nM
Cc1cc(Nc2nc(Nc3ccccc3N(C)S(C)(=O)=O)c3cc[nH]c3n2)ccc1N1CCN(C)CC1 [Example 5, N-methyl-N-(2-((2-((3-methyl-4-(4-methylpiperazin-1-yl)phenyl)amino)-7H-pyrrolo[2,3-d]pyrimidine-4-yl)amino)phenyl)methanesulfonamide] | 31 nM
CN1CCN(c2ccc(Nc3nc(Nc4ccccc4N(C)S(C)(=O)=O)c4cc[nH]c4n3)cc2Cl)CC1 [Example 6, N-(2-((2-((3-chloro-4-(4-methylpiperazin-1-yl)phenyl)amino)-7H-pyrrolo[2,3-d]pyrimidine-4-yl)amino)phenyl)-N-methylmethanesulfonamide] | 54 nM
CN1CCN(c2ccc(Nc3nc(Nc4ccccc4N(C)S(C)(=O)=O)c4cc[nH]c4n3)cc2F)CC1 [Example 7, N-(2-((2-((3-fluoro-4-(4-methylpiperazin-1-yl)phenyl)amino)-7H-pyrrolo[2,3-d]pyrimidine-4-yl)amino)phenyl)-N-methylmethanesulfonamide] | 19 nM
CN(c1ccccc1Nc1nc(Nc2ccc(N3CCOCC3)c(F)c2)nc2[nH]ccc12)S(C)(=O)=O [Example 12, N-(2-((2-((3-fluoro-4-morpholinophenyl)amino)-7H-pyrrolo[2,3-d]pyrimidine-4-yl)amino)phenyl)-N-methylmethanesulfonamide] | 4.2 nM
CN(c1ccccc1Nc1nc(Nc2ccc(N3CCC(N4CCOCC4)CC3)c(F)c2)nc2[nH]ccc12)S(C)(=O)=O [Example 18, N-(2-((2-((3-fluoro-4-(4-morpholinopiperidin-1-yl)phenyl)amino)-7H-pyrrolo[2,3-d]pyrimidine-4-yl)amino)phenyl)-N-methylmethanesulfonamide] | 73 nM
CN(c1ccccc1Nc1nc(Nc2ccc(N3CCN(C4COC4)CC3)c(F)c2)nc2[nH]ccc12)S(C)(=O)=O [Example 19] | 112 nM
CN1CCC(c2ccc(Nc3nc(Nc4ccccc4N(C)S(C)(=O)=O)c4cc[nH]c4n3)cc2F)CC1 [Example 20, N-(2-((2-((3-fluoro-4-(1-methylpiperidin-4-yl)phenyl)amino)-7H-pyrrolo[2,3-d]pyrimidine-4-yl)amino)phenyl)-N-methylmethanesulfonamide] | 37 nM
CN(C)C1CCN(c2ccc(Nc3nc(Nc4ccccc4N(C)S(C)(=O)=O)c4cc[nH]c4n3)cc2F)CC1 [Example 21, N-(2-((2-((4-(4-(dimethylamino)piperidin-1-yl)-3-fluorophenyl)amino)-7H-pyrrolo[2,3-d]pyrimidine-4-yl)amino)phenyl)-N-methylmethanesulfonamide] | 17 nM
CN(c1ccccc1Nc1nc(Nc2ccc(N3CCCCC3)c(F)c2)nc2[nH]ccc12)S(C)(=O)=O [Example 22, N-(2-((2-((4-(piperidin-1-yl)-3-fluorophenyl)amino)-7H-pyrrolo[2,3-d]pyrimidine-4-yl)amino)phenyl)-N-methylmethanesulfonamide] | 371 nM
CN(c1ccccc1Nc1nc(Nc2ccc(N3CCNCC3)c(F)c2)nc2[nH]ccc12)S(C)(=O)=O [Example 23, N-(2-((2-((3-fluoro-4-(piperazin-1-yl)phenyl)amino)-7H-pyrrolo[2,3-d]pyrimidine-4-yl)amino)phenyl)-N-methylmethanesulfonamide] | 76 nM
CN1CCC(Nc2ccc(Nc3nc(Nc4ccccc4N(C)S(C)(=O)=O)c4cc[nH]c4n3)cc2F)CC1 [Example 24, N-(2-((2-((3-fluoro-4-((1-methylpiperidin-4-yl)amino)phenyl)amino)-7H-pyrrolo[2,3-d]pyrimidine-4-yl)amino)phenyl)-N-methylmethanesulfonamide] | 47 nM
CN1CCN(c2c(F)cc(Nc3nc(Nc4ccccc4N(C)S(C)(=O)=O)c4cc[nH]c4n3)cc2F)CC1 [Example 25, N-(2-((2-((3,5-difluoro-4-(4-methylpiperazin-1-yl)phenyl)amino)-7H-pyrrolo[2,3-d]pyrimidine-4-yl)amino)phenyl)-N-methylmethanesulfonamide] | 22 nM
CN1CCN(c2ccc(Nc3nc(Nc4ccccc4N(C)S(C)(=O)=O)c4cc[nH]c4n3)c(F)c2F)CC1 [Example 27, N-(2-((2-((2,3-difluoro-4-(4-methylpiperazin-1-yl)phenyl)amino)-7H-pyrrolo[2,3-d]pyrimidine-4-yl)amino)phenyl)-N-methylmethanesulfonamide] | 6 nM
CN(c1ccccc1Nc1nc(Nc2ccc(N3CCN(CCO)CC3)c(F)c2F)nc2[nH]ccc12)S(C)(=O)=O [Example 28, N-(2-((2-((2,3-difluoro-4-(4-(2-hydroxyethyl)piperazin-1-yl)phenyl)amino)-7H-pyrrolo[2,3-d]pyrimidine-4-yl)amino)phenyl)-N-methylmethanesulfonamide] | 7 nM
CN1CCN(c2ccc(Nc3nc(Nc4ccccc4N(C)S(C)(=O)=O)c4cc[nH]c4n3)nc2)CC1 [Example 29, N-methyl-N-(2-((2-((5-(4-methylpiperazin-1-yl)pyridin-2-yl)amino)-7H-pyrrolo[2,3-d]pyrimidine-4-yl)amino)phenyl)methanesulfonamide] | 626 nM
CN1CCN(c2ccc(Nc3nc(Nc4ccccc4N(C)S(C)(=O)=O)c4cc[nH]c4n3)cn2)CC1 [Example 30, N-methyl-N-(2-((2-((6-(4-methylpiperazin-1-yl)pyridin-3-yl)amino)-7H-pyrrolo[2,3-d]pyrimidine-4-yl)amino)phenyl)methanesulfonamide] | 9.4 nM
CN1CCC2(CC1)CCN(c1ccc(Nc3nc(Nc4ccccc4N(C)S(C)(=O)=O)c4cc[nH]c4n3)cc1F)CC2 [Example 31, N-(2-((2-((3-fluoro-4-(9-methyl-3,9-diazaspiro[5.5]undecan-3-yl)phenyl)amino)-7H-pyrrolo[2,3-d]pyrimidine-4-yl)amino)phenyl)-N-methylmethanesulfonamide] | 10 nM
CCN1CCC2(CC1)CCN(c1ccc(Nc3nc(Nc4ccccc4N(C)S(C)(=O)=O)c4cc[nH]c4n3)cc1F)CC2 [Example 32, N-(2-((2-((4-(9-ethyl-3,9-diazaspiro[5.5]undecan-3-yl)-3-fluorophenyl)amino)-7H-pyrrolo[2,3-d]pyrimidine-4-yl)amino)phenyl)-N-methanesulfonamide] | 11 nM
CN1CCC2(CCN(c3ccc(Nc4nc(Nc5ccccc5N(C)S(C)(=O)=O)c5cc[nH]c5n4)cc3F)CC2)C1 [Example 33, N-(2-((2-((3-fluoro-4-(2-methyl-2,8-diazaspiro[4.5]decan-8-yl)phenyl)amino)-7H-pyrrolo[2,3-d]pyrimidine-4-yl)amino)phenyl)-N-methylmethanesulfonamide] | 31 nM
CN1CC2(CCN(c3ccc(Nc4nc(Nc5ccccc5N(C)S(C)(=O)=O)c5cc[nH]c5n4)cc3F)CC2)C1 [Example 34, N-(2-((2-((3-fluoro-4-(2-methyl-2,7-diazaspiro[3.5]nonan-7-yl)phenyl)amino)-7H-pyrrolo[2,3-d]pyrimidine-4-yl)amino)phenyl)-N-methylmethanesulfonamide] | 6 nM
CN1CCC2(CC1)CCN(c1ccc(Nc3nc(Nc4ccccc4N(C)S(C)(=O)=O)c4cc[nH]c4n3)cc1F)C2 [Example 35, N-(2-((2-((3-fluoro-4-(8-methyl-2,8-diazaspiro[4.5]decan-2-yl)phenyl)amino)-7H-pyrrolo[2,3-d]pyrimidine-4-yl)amino)phenyl)-N-methylmethanesulfonamide] | 185 nM
CN1CCC2(CC1)CN(c1ccc(Nc3nc(Nc4ccccc4N(C)S(C)(=O)=O)c4cc[nH]c4n3)cc1F)C2 [Example 37, N-(2-((2-((3-fluoro-4-(7-methyl-2,7-diazaspiro[3.5]nonan-2-yl)phenyl)amino)-7H-pyrrolo[2,3-d]pyrimidine-4-yl)amino)phenyl)-N-methylmethanesulfonamide] | 95 nM
CN1CCC2(C1)CN(c1ccc(Nc3nc(Nc4ccccc4N(C)S(C)(=O)=O)c4cc[nH]c4n3)cc1F)C2 [Example 38, N-(2-((2-((3-fluoro-4-(6-methyl-2,6-diazaspiro[3.4]octan-2-yl)phenyl)amino)-7H-pyrrolo[2,3-d]pyrimidine-4-yl)amino)phenyl)-N-methylmethanesulfonamide] | 25 nM
CN(c1ccccc1Nc1nc(Nc2ccc(N3CCC4(CCOCC4)CC3)c(F)c2)nc2[nH]ccc12)S(C)(=O)=O [Example 39, N-(2-((2-((3-fluoro-4-(3-oxa-9-diazaspiro[5.5]undecan-9-yl)phenyl)amino)-7H-pyrrolo[2,3-d]pyrimidine-4-yl)amino)phenyl)-N-methylmethanesulfonamide] | 67 nM
CN(c1ccccc1Nc1nc(Nc2ccc(N3CCC4(CC3)COC4)c(F)c2)nc2[nH]ccc12)S(C)(=O)=O [Example 40, N-(2-((2-((3-fluoro-4-(2-oxa-7-azaspiro[3.5]nonan-7-yl)phenyl)amino)-7H-pyrrolo[2,3-d]pyrimidine-4-yl)amino)phenyl)-N-methylmethanesulfonamide] | 65 nM
